Experimental data reported in patent US10590496B2, “Composition for preventing and treating degenerative brain disease using novel lactic acid bacteria” (WEDEA INC., priority 2016, dated 2020).

Legend:
[1] = system: cytochrome c oxidase (COX); assay: COX activity in liver mitochondria; assay type: in vivo, Balb/c based mice; details: 100 mg/kg orally for 14 days
Protocol: Balb/c based mice were divided into a vehicle control group, a group in which 5-aminolevulinic acid (100 mg/kg) was orally administered for 14 days (2 weeks), a group in which Lactobacillus reuteri ELF (100 mg/kg) was orally administered for 14 days (2 weeks), and a group in which the mixture sample (100 mg/kg) of Lactobacillus reuteri ELF and 5-aminolevulinic acid was orally administered for 14 days (2 weeks). In order to measure cytochrome c oxidase (COX) activity in the liver mitochondria of the mouse after administration, proteins were extracted from the liver cells of the mouse and measured using a COX activity assay kit (TA100, Toyo B Net).

Gr-1/CD11b cells = assay: Flow cytometry, frequency of Gr-1/CD11b cells; assay type: in vivo, Balb/c based male mice; details: 100 mg/kg orally for 14 days
CD3 T cells = assay: Flow cytometry, frequency of CD3 T cells; assay type: in vivo, Balb/c based male mice; details: 100 mg/kg orally for 14 days
CD4^+ CD25^+ cells = assay: Flow cytometry, frequency of CD4^+ CD25^+ cells; assay type: in vivo, Balb/c based male mice; details: 100 mg/kg orally for 14 days
Protocol: (§1) Balb/c based male mice (8 weeks old) were divided into a vehicle control group, a group in which 5-aminolevulinic acid (hereinafter, referred as ‘ALA’, 100 mg/kg) was orally administered for 14 days (2 weeks), a group in which Lactobacillus reuteri ELF (hereinafter, referred to as ‘LAB’, 100 mg/kg) was orally administered for 14 days (2 weeks), a group in which a mixture sample (50 mg/kg) of Lactobacillus reuteri ELF and 5-aminolevulinic acid (hereinafter, referred to as ‘ALA+LAB’) was orally administered for 14 days (2 weeks), and a group in which the mixture sample (100 mg/kg) of Lactobacillus reuteri ELF and 5-aminolevulinic acid was orally administered for 14 days (2 weeks).
(§2) After 2 weeks of administration, in order to obtain PBMC in the mice, the blood was extracted using a syringe (3 ml) treated with heparin by a cardiac puncture method. The extracted blood was mixed and treated with 10 ml of ACK solution (a solution obtained by mixing 8.3 g of NH4Cl and 1 g of KHCO3 with demineralized water to which 0.1 Mm EDTA was added) prepared in advance at room temperature for 5 minutes, thereby removing red blood cells. […] Thereafter, the resultants were washed with PBS three times or more, and frequencies (%) of activated CD4^+ CD25^+, CD44^+ CD69^+, CD49b^+ NK1.1^+, and CD25^+ CTLA-4^+ cells were analyzed using a cell quest program of flow cytometry.

[2] = system: IFN-γ, IL-2, IL-4, and IL-10; assay: ELISA absorbance of culture supernatant of spleen cells (cytokine not specified); assay type: in vivo, Balb/c based male mice; details: 100 mg/kg orally for 14 days; spleen cells on anti-CD3 mAb, 48 hours
Protocol: as §1
(§3) After 2 weeks of administration, the spleen was harvested from the mice, and spleen cells were isolated with a 100 mesh filter. Before one day of measurement, anti-CD3 mAb (1 μg/ml) was coated on a 96-well plate and kept overnight in a refrigerator at 4° C., and the 96-well plate was washed with D-PBS two times. […] Levels of IFN-γ, IL-2, IL-4, and IL-10 in the culture supernatant were measured by enzyme-linked immuno-sorbent assay (ELISA). […] Thereafter, absorbance was measured at 450 nm in an ELISA reader.

IL-2 = IL-2 production amount in cultured spleen cells (ELISA); assay type: in vivo, Balb/c based male mice; details: single agents 100 mg/kg, mixture sample 50 and 100 mg/kg, orally for 14 days
Protocol: as §1, §3

IL-4 = IL-4 production amount in cultured spleen cells (ELISA); assay type: in vivo, Balb/c based male mice; details: single agents 100 mg/kg, mixture sample 50 and 100 mg/kg, orally for 14 days
Protocol: as §1, §3

[3] = system: nitrogen oxide (NO) in macrophage; assay: Nitrogen oxide (NO) formation in macrophage; assay type: in vivo, Balb/c based mice; details: 100 mg/kg orally for 14 days; peritoneal macrophages cultured 72 hours
Protocol: Balb/c based mice were divided into a vehicle control group, a group in which 5-aminolevulinic acid (100 mg/kg) was orally administered for 14 days (2 weeks), a group in which Lactobacillus reuteri ELF (100 mg/kg) was orally administered for 14 days (2 weeks), a group in which a mixture sample (50 mg/kg) of Lactobacillus reuteri ELF and 5-aminolevulinic acid was orally administered for 14 days (2 weeks), and a group in which the mixture sample (100 mg/kg) of Lactobacillus reuteri ELF and 5-aminolevulinic acid was orally administered for 14 days (2 weeks). Three days before termination of administration, after 1.5 ml of 10% proteose peptone (Difco) aqueous solution was administered into the abdominal cavity of the mice, the mice were sacrificed, and the abdomen was disinfected with alcohol. The skin of the abdomen was cut using scissors, and the peritoneum was exposed. Then, 4.5 ml of cooled Hanks' balanced salt solution (HBSS) was injected into the abdominal cavity using a syringe and abdominal massage was performed thereon for 30 seconds, followed by recovering a peritoneal washing fluid using a syringe. […] In addition, after 200 μl of […] reagent II in which 0.06 g of N-1-naphthylene amidehydrochloride was dissolved in 50 ml of distilled water was rapidly added thereto, and stirred, absorbance was measured at 540 nm.

[4] = system: peritoneal cell population; assay: Proliferation of peritoneal cell population (number of lymphocytes); assay type: in vivo, Balb/c based mice; details: abdominal cavity, orally for 14 days
Protocol: Balb/c based mice were divided into a vehicle control group, a group in which 5-aminolevulinic acid (100 mg/kg) was orally administered for 14 days (2 weeks), a group in which Lactobacillus reuteri ELF (100 mg/kg) was orally administered for 14 days (2 weeks), a group in which a mixture sample (50 mg/kg) of Lactobacillus reuteri ELF and 5-aminolevulinic acid was orally administered for 14 days (2 weeks), and a group in which the mixture sample (100 mg/kg) of Lactobacillus reuteri ELF and 5-aminolevulinic acid was orally administered for 14 days (2 weeks). Two days before termination of administration, 0.5 ml of 2% normal saline suspension of starch was injected into the abdominal cavity of the mice to thereby be immunized. The mice were sacrificed, and the abdomen was disinfected with alcohol. […] After recovered cells were cooled, washed with the same HBSS solution two times, the number of peritoneal cells existing therein was directly measured using a hemocytometer under a microscope. […] Thereafter, the resultants were washed with PBS three times or more, and frequencies (%) of activated CD11b^+ CD14^+, CD3^+ CD4^+, and CD3^+ CD8^+ cells were analyzed using the Cell Quest program of a flow cytometry, and a total cell count was applied thereto, thereby calculating the absolute number of peritoneal cell population.

IFN-γ = IFN-γ production amount in cultured spleen cells (ELISA); assay type: in vivo, Balb/c based male mice; details: single agents 100 mg/kg, mixture sample 50 and 100 mg/kg, orally for 14 days
Protocol: as §1, §3

activated Th lymphocytes = assay: Flow cytometry of activated Th lymphocytes in PBMC; assay type: in vivo, Balb/c based male mice; details: 100 mg/kg orally for 14 days
Protocol: as §1, §2

NKG2D = assay: Flow cytometry, frequency of NKG2D, bioactive marker of NK cells; assay type: in vivo, Balb/c based male mice; details: 100 mg/kg orally for 14 days

Question: What does the source list for NCC(=O)CCC(=O)O [5-aminolevulinic acid]?
Answer: COX activity in liver mitochondria relative to control group [1]: increased by two times or more; frequency of Gr-1/CD11b cells as compared to the control group (Gr-1/CD11b cells): significantly increased; frequency of CD3 T cells as compared to the control group (CD3 T cells): increased; frequency of CD4^+ CD25^+ cells as compared to the control group (CD4^+ CD25^+ cells): significantly increased; ELISA absorbance at 450 nm relative to control group (NC) [2]: increased two times or more; IL-2 production amount as compared to control group (NC) (IL-2): slightly increased; IL-4 production amount as compared to control group (NC) (IL-4): slightly increased; nitrogen oxide (NO) production amount as compared to the control group (NC) [3]: statistically significantly increased; number of lymphocytes as compared to the control group [4]: increased; IFN-γ production amount as compared to control group (NC) (IFN-γ): slightly increased; frequency of activated Th lymphocytes in PBMC, increase as compared to the negative control group (activated Th lymphocytes): ≥ 46.2%; frequency of NKG2D as compared to the control group (NKG2D): significantly increased
